Among the data in patent publication US6756373B1, “Pharmaceutically active compounds” (Pfizer Inc., priority 1999, dated 2004) are melting point and IC50 values, retold here.

One data set has as its target cGMP PDE5 (UniProt O76074). Put plainly: Phosphodiesterase (PDE) inhibitory activity: in vitro inhibition of cGMP PDE5 (batch method or scintillation proximity assay). As to conditions: in vitro activity as inhibitors of cGMP PDE5. In general terms: SPA uses beads or plates that emit light when radiolabelled molecules are held near them.

Description for cGMP PDE5: Phosphodiesterases 7-11 were generated from full length human recombinant clones transfected into SF9 cells.
In summary, the effect of PDE inhibitors was investigated by assaying a fixed amount of enzyme in the presence of varying inhibitor concentrations and low substrate, (cGMP or cAMP in a 3:1 ratio unlabelled to [^3H]-labeled at a conc ˜1/3 Km) such that IC50≅Ki. The final assay volume was made up to 100 μl with assay buffer [20 mM Tris-HCl pH 7.4, 5 mM MgCl2, 1 mg/ml bovine serum albumin].

Take `CCCOc1ncc(NC(=O)CC(=O)O)cc1-c1nc2c(CCC)nn(C)c2c(=O)[nH]1` [Example 79, N-[5-(1-Methyl-7-oxo-3-propyl-6,7-dihydro-1H-pyrazolo[4,3-d]pyrimidin-5-yl)-6-propoxy-3-pyridinyl]-3-oxo-β-alanine]: the melting point was in the range of 261 to 262 °C. In addition, the IC50 at cGMP PDE5 worked out at 1.6 nM. `CCCOc1ncc(NS(=O)(=O)CC(=O)O)cc1-c1nc2c(CCC)nn(C)c2c(=O)[nH]1` [Example 80, ({[5-(1-Methyl-7-oxo-3-propyl-6,7-dihydro-1H-pyrazolo[4,3-d]pyrimidin-5-yl)-6-propoxy-3-pyridinyl]amino}sulfonyl)acetic Acid] gave a melting point of 267 to 270 °C. The IC50 on cGMP PDE5 was determined as 0.9 nM.

For `CCCOc1ncc(NC(C)C(=O)OC)cc1-c1nc2c(CCC)nn(C)c2c(=O)[nH]1` (stereo not shown) [Example 83, Methyl 2-{[5-(1-Methyl-7-oxo-3-propyl-6,7-dihydro-1H-pyrazolo[4,3-d]-pyrimidin-5-yl)-6-propoxy-3-pyridinyl]amino}propanoate], the melting point is 185 to 187 °C. The IC50 against cGMP PDE5 is 2 nM. Turning to `CCCOc1ncc(NS(C)(=O)=O)cc1-c1nc2c(CCC)nn(C)c2c(=O)[nH]1` [Example 77, N-[5-(1-Methyl-7-oxo-3-propyl-6,7-dihydro-1H-pyrazolo[4,3-d]pyrimidin-5-yl)-6-propoxy-3-pyridinyl]methanesulfonamide], at cGMP PDE5, the IC50 came out at 0.9 nM. This counts as sub-nanomolar. Same read-out and setting: as for `CCCCOc1ncc(C(C)=O)cc1-c1nc2c(CC)n(CCN3CCOCC3)nc2c(=O)[nH]1` [Example 48], the figure is 2.45 nM; as for `CCCCOc1ncc(C(C)=O)cc1-c1nc2c(CC)n(C3CCNCC3)nc2c(=O)[nH]1` [Example 49, 5-(5-Acetyl-2-butoxy-3-pyridinyl)-3-ethyl-2-(4-piperidinyl)-2,6-dihydro-7H-pyrazolo[4,3-d]pyrimidin-7-one], 18 nM. Still for that read-out and setting: as for `CCCOc1ncc(NC(=O)CC(=O)OC)cc1-c1nc2c(CCC)nn(C)c2c(=O)[nH]1` [Example 78, Methyl 3-{[5-(1-methyl-7-oxo-3-propyl-6,7-dihydro-1H-pyrazolo[4,3-d]-pyrimidin-5-yl)-6-propoxy-3-pyridinyl]amino}-3-oxopropanoate], the figure is 0.3 nM; as for `CCCOc1ncc(-c2nnn[nH]2)cc1-c1nc2c(CCC)nn(C)c2c(=O)[nH]1` [Example 71, 1-Methyl-5-[2-propoxy-5-(1H-tetrazol-5-yl)-3-pyridinyl]-3-propyl-1,6-dihydro-7H-pyrazolo[4,3-d]pyrimidin-7-one], 1 nM. Same read-out and setting: with `CCCCOc1ncc(C(=O)CN2CCOCC2)cc1-c1nc2c(CC)n(CCOC)nc2c(=O)[nH]1` [Example 34, 5-[2-Butoxy-5-(4-morpholinylacetyl)-3-pyridinyl]-3-ethyl-2-(2-methoxyethyl)-2,6-dihydro-7H-pyrazolo[4,3-d]pyrimidin-7-one] the figure was 30.7 nM.

In turn, `CCOc1ncc(C(C)=O)cc1-c1nc2c(-c3ccc(N(C)C)nc3)n(C)nc2c(=O)[nH]1` [Example 59, 5-(5-Acetyl-2-ethoxy-3-pyridinyl)-3-[6-(dimethylamino)-3-pyridinyl]-2-methyl-2,6-dihydro-7H-pyrazolo[4,3-d]pyrimidin-7-one] displayed an IC50 against cGMP PDE5 of 1.41 nM.

`CCCOc1ncc(NCC(=O)OC)cc1-c1nc2c(CCC)nn(C)c2c(=O)[nH]1` [Example 82, Methyl {[5-(1-Methyl-7-oxo-3-propyl-6,7-dihydro-1H-pyrazolo[4,3-d]pyrimidin-5-yl)-6-propoxy-3-pyridinyl]amino}acetate] yielded a melting point of 175 °C. Further, on cGMP PDE5, it took 4 nM to reach half-maximal inhibition (IC50). At cGMP PDE5, `CCCOc1ncc(C#CC(=O)OCC)cc1-c1nc2c(CCC)nn(C)c2c(=O)[nH]1` [Example 72] had an IC50 of 0.3 nM. Molecule `CCCOc1ncc(I)cc1-c1nc2c(CC)n(CC(=O)OC(C)(C)C)nc2c(=O)[nH]1` [Example 65, tert-butyl [3-ethyl-5-(5-iodo-2-propoxy-3-pyridinyl)-7-oxo-6,7-dihydro-2H-pyrazolo[4,3-d]-pyrimidin-2-yl]acetate] showed an IC50 against cGMP PDE5 of 4 nM. Against the preceding molecule, the IC50 is about 13-fold higher. The same measure, in the same setting: as for `CCCOc1ncc(N(S(C)(=O)=O)S(C)(=O)=O)cc1-c1nc2c(CCC)nn(C)c2c(=O)[nH]1` [Example 76, N-[5-(1-Methyl-7-oxo-3-propyl-6,7-dihydro-1H-pyrazolo[4,3-d]pyrimidin-5-yl)-6-propoxy-3-pyridinyl]-N-(methylsulfonyl)methanesulfonamide], the figure is 3 nM. Regarding `CCCOc1ncc(-c2cc(O)no2)cc1-c1nc2c(CCC)nn(C)c2c(=O)[nH]1` [Example 73, 5-[5-(3-Hydroxy-5-isoxazolyl)-2-propoxy-3-pyridinyl]-1-methyl-3-propyl-1,6-dihydro-7H-pyrazolo[4,3-d]pyrimidin-7-one], the melting point lay in the range of 239 to 241 °C. The IC50 on cGMP PDE5 came to 5 nM. On cGMP PDE5, `CCCCOc1ncc(C(=O)N(C)OC)cc1-c1nc2c(CC)n(CCOC)nc2c(=O)[nH]1` [Example 5, 6-Butoxy-5-[3-ethyl-2-(2-methoxyethyl)-7-oxo-6,7-dihydro-2H-pyrazolo[4,3-d]pyrimidin-5-yl]-N-methoxy-N-methylnicotinamide] returned an IC50 of 8.5 nM. Consider `CCCOc1ncc(I)cc1-c1nc2c(CC)nn(CC(=O)OC(C)(C)C)c2c(=O)[nH]1` [Example 64, tert-butyl [3-ethyl-5-(5-iodo-2-propoxy-3-pyridinyl)-7-oxo-6,7-dihydro-1H-pyrazolo[4,3-d]pyrimidin-1-yl]acetate], for which the midpoint of inhibition on cGMP PDE5, the IC50, lay at 7 nM. The IC50 values of the last two molecules are within 1.5-fold of each other.

A word on the melting point: it is the temperature, or range, at which the solid turns liquid. Usually IC50 stands for the point on the concentration scale where inhibition reaches its midpoint. High values mean a need for much substance, low ones inhibition by little substance.
